Biological target: T1, recombinant human PAI-1 (Homo sapiens, UniProt P05121)
T1 construct: purchased Molecular Innovations, Inc
Assay: Test Example 2: human PAI-1 inhibitory activity (tPA fluorogenic substrate, pH 7.4 HEPES buffer)
Format: biochemical
Conditions: human PAI-1
Experimental: 0.1 M HEPES, 0.1 M NaCl. 1 mM EDTA. 0.1% Polyethylene glycol 8,000 (Hampton Research Corporation),
2 mM Dimethyldecylphoshine oxide [Apo-10] (Fluka Corporation)

T1 sequence (P05121 24-402): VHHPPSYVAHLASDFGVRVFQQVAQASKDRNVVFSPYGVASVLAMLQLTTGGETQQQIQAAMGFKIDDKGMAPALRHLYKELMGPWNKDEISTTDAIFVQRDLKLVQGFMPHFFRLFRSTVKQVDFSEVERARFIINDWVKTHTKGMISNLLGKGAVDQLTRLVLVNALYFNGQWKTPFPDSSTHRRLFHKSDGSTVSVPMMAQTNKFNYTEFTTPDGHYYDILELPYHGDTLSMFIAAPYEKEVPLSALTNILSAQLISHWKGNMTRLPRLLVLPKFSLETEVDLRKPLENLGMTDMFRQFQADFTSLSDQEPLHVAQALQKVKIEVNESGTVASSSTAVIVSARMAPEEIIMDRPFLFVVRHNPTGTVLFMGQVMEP

Inhibition Rate of PAI-1 Activity (%) (compound concentration 0.1 μM)	Inhibition Rate of PAI-1 Activity (%) (compound concentration 0.3 μM)	Inhibition Rate of PAI-1 Activity (%) (compound concentration 1 μM)	Inhibition Rate of PAI-1 Activity (%) (compound concentration 3 μM)	SMILES
14	8	66	>99	CC(C)(C)c1ccc(Oc2cc(-c3ccc(OC(F)(F)F)cc3)ccc2C(=O)O)cc1 [Compound 434]
12	29	81	98	CCCN(CC(=O)O)c1cc(-c2ccc(OC(F)(F)F)cc2)ccc1Oc1ccc(C(C)(C)C)cc1 [Compound 435]
3	19	63	>99	CC(C)(C)c1cccc(Oc2cc(-c3ccc(OC(F)(F)F)cc3)ccc2OCC(=O)O)c1 [Compound 436]
0	12	67	98	CC(C)(C)c1cccc(Oc2ccc(-c3ccc(OC(F)(F)F)cc3)cc2/C=C/C(=O)O)c1 [Compound 437]
13	11	50	>99	CC(C)(C)c1cccc(Oc2ccc(-c3ccc(OC(F)(F)F)cc3)cc2CCC(=O)O)c1 [Compound 438]
12	9	44	>99	CC(C)(C)c1cccc(Oc2ccc(-c3ccc(OC(F)(F)F)cc3)cc2OCC(=O)O)c1 [Compound 439]
1	4	83	>99	CC(C)(C)c1ccc(Oc2cc(-c3ccc(OC(F)(F)F)cc3)ccc2NCC(=O)O)cc1 [Compound 442]
0	0	11	96	Cc1ccc(-c2ccc(OCC(=O)O)c(Oc3ccc(C(C)(C)C)cc3)c2)cc1 [Compound 444]
0	1	12	50	COc1ccc(-c2ccc(OCC(=O)O)c(Oc3ccc(C(C)(C)C)cc3)c2)cc1 [Compound 445]
9	11	58	98	CC(C)(C)c1ccc(Oc2cc(-c3ccc(OC(F)(F)F)cc3)ccc2/C=C\C(=O)O)cc1 [Compound 450]
4	15	96	>99	CC(C)(C)c1ccc(Oc2ccc(-c3ccc(C(C)(C)C)cc3)cc2OCC(=O)O)cc1 [Compound 453]
7	13	70	98	CC(C)(C)c1ccc(Oc2cc(-c3ccccc3OC(F)(F)F)ccc2OCC(=O)O)cc1 [Compound 456]
21	18	63	>99	CC(C)(C)c1ccc(Oc2cc(-c3ccc(Cl)cc3)ccc2OCC(=O)O)cc1 [Compound 457]
26	31	42	86	CC(C)(C)c1ccc(Oc2cc(-c3ccc(F)cc3)ccc2OCC(=O)O)cc1 [Compound 459]
1	8	63	>99	CC(C)Oc1ccc(-c2ccc(OCC(=O)O)c(Oc3ccc(C(C)(C)C)cc3)c2)cc1 [Compound 460]
10	17	87	98	CC(C)(C)c1ccc(-c2ccc(OCC(=O)O)c(Oc3cccc(C(C)(C)C)c3)c2)cc1 [Compound 465]

The remaining lines, values behind:

SMILES	Inhibition Rate of PAI-1 Activity (%) (compound concentration 0.1 μM)	Inhibition Rate of PAI-1 Activity (%) (compound concentration 0.3 μM)	Inhibition Rate of PAI-1 Activity (%) (compound concentration 1 μM)	Inhibition Rate of PAI-1 Activity (%) (compound concentration 3 μM)
CC(C)(C)c1ccc(Oc2ccc(Nc3ccc(OC(F)(F)F)cc3)cc2/C=C/C(=O)O)cc1 [Compound 431]	0	0	77	>99
CC(C)(C)c1ccc(Oc2ccc(Nc3ccc(OC(F)(F)F)cc3)cc2CCC(=O)O)cc1 [Compound 432]	4	0	25	97
CCCCN(CC(=O)O)c1cc(-c2ccc(OC(F)(F)F)cc2)ccc1OCCCCc1ccccc1 [Compound 433]	13	6	41	98
CCCCCOc1ccc(-c2ccc(OCC(=O)O)c(Oc3ccc(C(C)(C)C)cc3)c2)cc1 [Compound 440]	0	3	96	>99
CC(C)c1ccc(-c2ccc(OCC(=O)O)c(Oc3ccc(C(C)(C)C)cc3)c2)cc1 [Compound 441]	9	29	89	98
CCCCc1ccc(-c2ccc(OCC(=O)O)c(Oc3ccc(C(C)(C)C)cc3)c2)cc1 [Compound 443]	7	8	76	>99
CC(C)(C)c1ccc(Oc2cc(-c3ccc(C(C)(C)C)cc3)ccc2OCC(=O)O)cc1 [Compound 446]	3	13	84	>99
CCC(CC)Oc1ccc(-c2ccc(OCC(=O)O)c(Oc3ccc(C(C)(C)C)cc3)c2)cc1 [Compound 447]	4	11	89	>99
CSc1ccc(-c2ccc(OCC(=O)O)c(Oc3ccc(C(C)(C)C)cc3)c2)cc1 [Compound 448]	4	11	39	>99
O=C(O)COc1cc(Oc2ccc(OC(F)(F)F)cc2)ccc1OCCCCc1ccccc1 [Compound 452]	9	8	15	94
CCCCCOc1ccc(-c2ccc(Oc3ccc(C(C)(C)C)cc3)c(OCC(=O)O)c2)cc1 [Compound 454]	11	17	>99	>99
CC(C)(C)c1ccc(Oc2cc(-c3cc(Cl)ccc3Cl)ccc2OCC(=O)O)cc1 [Compound 455]	9	20	93	99
CCCCOc1ccc(Oc2cc(-c3ccc(OC(F)(F)F)cc3)ccc2CCC(=O)O)cc1 [Compound 461]	1	26	95	98
CC(C)(C)c1ccc(Sc2cc(-c3ccc(OC(F)(F)F)cc3)ccc2/C=C/C(=O)O)cc1 [Compound 462]	37	94	97	95
CC(C)(C)c1ccc(Oc2cc(-c3ccccc3OC(F)(F)F)ccc2/C=C/C(=O)O)cc1 [Compound 466]	4	9	88	>99
